Results reported in patent publication US11084826B2, “RSV antiviral pyrazolo- and triazolo-pyrimidine compounds” (Janssen Sciences Ireland Unlimited Company, priority 2015, dated 2021).

Key:
[1] = tested on: rgRSV224 virus; experiment: Antiviral activity: inhibition of rgRSV224 (GFP-expressing RSV) replication in HeLa cells, GFP expression read-out; type: cell-based, respiratory syncytial virus (RSV); conditions: human respiratory syncytial virus, HeLa, read-out: RSV HELA pEC50, rgRSV224 virus (MOI=1) in HeLa cells, GFP read-out (converted)
How it was run: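 EC50 is the 50% inhibitory concentration for GFP expression, read by laser microscopy three days after rgRSV224 infection (MOI=1) of HeLa cells (3,000/well). Compounds were tested as 9 serial 4-fold dilutions at 0.05% DMSO, and cells were incubated at 37° C under 5% CO2.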

[2] = Cytotoxicity in HeLa cells, ATP content measured with the ATPlite kit; type: cell-based; conditions: human, TOX HELA pCC50

| SMILES | EC50 [1] [nM] | CC50 at 3 days [2] [nM] | melting point [°C] |
| --- | --- | --- | --- |
| CCc1cc(C(=O)N2CCCCC[C@H]2C)nc2cc(-c3ccc(N(C)[C@H]4C[C@@H](C(=O)O)C4)cc3F)nn12 (racemic) [Compound W23] | 75.9 | 79400 | 182.69 |
| CCc1cc(C(=O)N2CCCCCC2C)nc2nc(-c3ccc(NC(=O)NCC4CCCO4)cc3F)nn12 (stereo not drawn) [Compound U1] | 525 | > 100000 | 185 to 190 |
| CCc1cc(C(=O)N2CCC3=C(CCCC3)C2C)nc2cc(-c3cccc(/C=C/C(=O)O)c3F)nn12 (racemic) [Compound M51] | 162 | 66100 | 227.14 |
| CCc1cc(C(=O)N2CCCCCC2C)nc2cc(-c3ccc(NC(=O)CCOC)cc3F)nn12 (stereo not drawn) [Compound E7] | 117 | > 25100 | 175 to 180 |
| CCc1cc(C(=O)N2CCCCCC2C)nc2cc(-c3ccc(-c4cccnc4F)cc3F)nn12 (stereo not drawn) [Compound F8] | 2340 | > 25100 | 86 to 87 |
| CCc1cc(C(=O)N2CCCCCC2C)nc2cc(-c3ccc(/C=C/C(N)=O)cc3F)nn12 (stereo not drawn) [Compound N1] | 129 | > 25100 | 140 to 145 |
| CC1CCCCCN1C(=O)c1cc(N(C)C)n2nc(-c3ccc(C#N)cc3F)cc2n1 (stereo not drawn) [Compound H2] | 912 | > 25100 | 194 to 195 |
| C[C@@H]1c2ccccc2CCN1C(=O)c1cc(C2(C)CC2)n2nc(-c3ccc(N4CC[C@H](C(=O)O)C4)cc3F)cc2n1 [Compound W34] | 11.2 | 43700 | 162.08 |
| CCc1cc(C(=O)N2CCCCCC2C)nc2cc(-c3ccc(-c4ccc(C(=O)O)cn4)cc3F)nn12 (stereo not drawn) [Compound F14] | 182 | > 25100 | 245 to 250 |
| CCc1cc(C(=O)N2CCc3ccccc3[C@H]2C)nc2cc(-c3ccc(-n4cc(C(=O)O)cn4)cc3F)nn12 [Compound W27] | 39.8 | 46800 | 144.43 |
| CCc1cc(C(=O)N2CCCCCC2C)nc2cc(-c3ccc(C(=O)NCCO)cc3F)nn12 (stereo not drawn) [Compound L5] | 158 | > 25100 | 177 |
| CCc1cc(C(=O)N2CCCCCC2C)nc2cc(-c3ccc(NC(=O)Cc4ccncc4)cc3)nn12 (stereo not drawn) [Compound E23] | 646 | > 25100 | 232 to 234 |
| CCc1cc(C(=O)N2CCCCCC2C)nc2cc(-c3ccc(NC(=O)NCC4CCCO4)cc3F)nn12 (stereo not drawn) [Compound B1] | 129 | > 100000 | 140 |
| CCc1cc(C(=O)N2CCCCCC2C)nc2cc(-c3ccc4c(c3)CC(=O)N4C)nn12 (stereo not drawn) [Compound A9] | 537 | > 25100 | 225 to 230 |
| CC1c2ccsc2CCN1C(=O)c1cc(C2CC2)n2nc(-c3cccc(/C=C/C(=O)O)c3F)cc2n1 (stereo not drawn) [Compound M46] | 5.01 | 67600 | 265.43 |
| CCc1cc(C(=O)N2CCCCCC2C)nc2cc(-c3ccc(C(=O)NCc4ccco4)cc3F)nn12 (stereo not drawn) [Compound L7] | 240 | > 25100 | 168 |
| CCc1cc(C(=O)N2CCCC[C@H]2C)nc2cc(-c3ccc(C(N)=O)cc3)nn12 [Compound A27] | 871 | > 25100 | 160 to 165 |
| CCc1cc(C(=O)N2CCCCCC2C)nc2cc(-c3ccc(NC(=O)OCCO)cc3)nn12 (stereo not drawn) [Compound C6] | 537 | > 25100 | 176 to 178 |
| CCc1cc(C(=O)N2CCCCCC2C)nc2cc(-c3ccc(NC(=O)c4nccn4C)cc3F)nn12 (stereo not drawn) [Compound E1] | 617 | > 25100 | 210 to 215 |
| CCc1cc(C(=O)N2CCCCC[C@H]2C)nc2cc(-c3ccc(N4CC[C@H](C(=O)O)C4)cc3F)nn12 [Compound W7] | 47.9 | 70800 | 205.8 |

| SMILES | EC50 [1] [nM] | CC50 at 3 days [2] [nM] | melting point [°C] |
| --- | --- | --- | --- |
| CCc1cc(C(=O)N2CCCCCC2C)nc2cc(-c3ccc4ncccc4c3)nn12 (stereo not drawn) [Compound A11] | 646 | > 25100 | 170 to 175 |
| CC(C)Cc1cc(C(=O)N2CCCCC[C@H]2C)nc2cc(-c3ccc(-c4ccc(C(=O)O)cn4)cc3F)nn12 [Compound F41] | 36.3 | 22400 | 197.2 |
| C[C@@H]1CCCCCN1C(=O)c1cc(C2(C)CC2)n2nc(-c3ccc(/C=C/C(=O)O)cc3F)cc2n1 [Compound M20] | 32.4 | 36300 | 228.12 |
| CCc1cc(C(=O)N2CCCCCC2C)nc2cc(-c3ccc(C(N)=O)cc3)nn12 (stereo not drawn) [Compound A25] | 550 | > 100000 | 155 to 160 |
| CCc1cc(C(=O)N2CCn3c(C)ccc3C2C)nc2cc(-c3ccc(/C=C/C(=O)O)cc3F)nn12 (stereo not drawn) [Compound M42] | 191 | > 25100 | 240 to 245 |
| CCCC(C)N(C)C(=O)c1cc(CC)n2nc(-c3ccc(NC(=O)NCC4CCCO4)cc3F)cc2n1 (stereo not drawn) [Compound B2] | 407 | > 100000 | 180 to 185 |
| CC1c2ccsc2CCN1C(=O)c1cc(C2CC2)n2nc(-c3ccc(N4CC[C@H](C(=O)O)C4)cc3F)cc2n1 (single isomer, unassigned) [Compound W37] | 5.62 | 45700 | 231.1 |
| C[C@@H]1CCCCCN1C(=O)c1cc(C2CCC2)n2nc(-c3ccc4cc(C(=O)O)c(=O)oc4c3F)cc2n1 (racemic) [Compound F53] | 36.3 | 60300 | 175.52 |
| CCc1cc(C(=O)N2CCCCCN2C)nc2cc(-c3ccc(C4C[C@H]4C(=O)O)cc3F)nn12 (mixture of isomers) [Compound O12] | 174 | > 100000 | 204.71 |
| CCc1cc(C(=O)N2CCCCCC2C)nc2cc(-c3ccc(-c4cccnc4)cc3F)nn12 (stereo not drawn) [Compound F4] | 724 | > 25100 | 167 to 168 |
| CCc1cc(C(=O)N2CCCCCC2C)nc2cc(-c3ccc(CCC(=O)O)cc3F)nn12 (stereo not drawn) [Compound Q1] | 537 | > 25100 | 125 to 130 |
| CCc1cc(C(=O)N2CCCCC[C@H]2C)nc2cc(-c3ccc(C(N)=O)cc3F)nn12 [Compound I1] | 53.7 | > 25100 | 180 |
| CCc1cc(C(=O)N2CCCCCC2C)nc2cc(-c3ccc(C(=O)NO)cc3F)nn12 (stereo not drawn) [Compound L6] | 148 | 20400 | 180 |
| CCc1cc(C(=O)N2CCCCC[C@H]2C)nc2nc(-c3cccs3)nn12 (racemic) [Compound S1] | 832 | > 100000 | 162 to 163 |
| C=CCC(=O)Nc1ccc(-c2cc3nc(C(=O)N4CCCCCC4C)cc(CC)n3n2)c(F)c1 (stereo not drawn) [Compound E5] | 138 | > 25100 | 170 to 175 |
| C[C@@H]1c2ccccc2CCN1C(=O)c1cc(C2(C)CC2)n2nc(-c3ccc(-n4cc(C(=O)O)cn4)cc3F)cc2n1 [Compound W26] | 23.4 | > 100000 | 238.58 |
| CCc1cc(C(=O)N2CCCCCC2C)nc2cc(-c3ccc(C(=O)NCCNC(C)=O)cc3F)nn12 (stereo not drawn) [Compound L4] | 234 | > 25100 | 174 |
| CCc1cc(C(=O)N2CCCCCC2C)nc2cc(-c3ccccc3F)nn12 (stereo not drawn) [Compound A4] | 1020 | 45700 | 120 to 125 |
| CCc1cc(C(=O)N2CCCCCC2C)nc2cc(-c3ccc4nc(C)ccc4c3)nn12 (stereo not drawn) [Compound A12] | 871 | > 25100 | 195 to 200 |
